The text below walks through data of US20250127740A1, “COMPOSITION CONTAINING 3-HYDROXYANTHRANILIC ACID AND COMPOUNDS THAT ALTER IRON HOMEOSTASIS AND METHOD OF ITS USE” (priority 2021, published 2025).

Series [1] concerns E. coli. The format is cell-based. To be noted: different dosages; liquid media OD 600 nm and CFUs on solid media; single compound. On the procedure:
(§1) 3HAA was tested for its ability to negatively impact bacterial growth. 3HAA was tested at different dosages for inhibition of E. coli and P. aeruginosa growth in liquid media (measured by optical density at 600 nm) and colony forming units (CFUs) on solid media.
(§2) Deferoxamine (DFO) was also tested for its ability to impact bacterial growth. Deferoxamine was tested at different dosages for inhibition of E. coli and P. aeruginosa growth in liquid media (measured by optical density at 600 nm) and CFUs on solid media.

For series [2], the system named is P. aeruginosa. Put plainly: Inhibition of P. aeruginosa growth in liquid media (OD 600 nm) and CFUs on solid media. The format is cell-based. The following applies: different dosages, single compound. On the procedure: as §1, §2
A further series relates to bacterial growth. In words: Growth lag-time in liquid media. The format is cell-based. To be noted: 1 mM 3HAA, 15 uM DFO, alone or combined. Here is the method:
By contrast, 1 mM 3HAA alone increased lag-time by 6% individually. 15 uM DFO alone increased lag-time by 4% individually. Combination of 1 mM 3HAA with 15 uM DFO provided multiple fold impact on growth inhibition that is statistically significant to either single treatment alone.

Series [3] has as its system E. coli. In words: Colony formation (CFUs) of E. coli on culture plate. It counts as cell-based.
Series [4] has as its system E. coli. Put plainly: Colony size of E. coli on plates. To be noted: for effect on colony size (E. coli): 1 mM 3HAA or 8 mM FAC alone. It counts as cell-based.
Procedure: To test the effects of 3HAA, DFO and FAC on colony size, colony size was measured for E. coli in plates containing 1 mM 3HAA, 15 uM DFO, and 8 mM FAC alone and in combination.
The test system of series [5] is P. aeruginosa. Put plainly: Colony formation (CFUs) of P. aeruginosa on culture plate. The format is cell-based. To be noted: 1 mM 3HAA and 15 uM DFO alone or in combination. Here is the method: To test the effects of 3HAA and DFO on colony formation of P. aeruginosa, 1 mM 3HAA and 15 uM DFO alone or in combination were added to culture plate containing P. aeruginosa.

In series [6] the test system is E. coli. In words: Pre-treatment of E. coli in liquid media, then colony count on DFO+3HAA plates. The format is cell-based. To be noted: pretreatment 1 mM 3HAA or 15 uM DFO, 16 hr at 37 degrees. Here is the method:
E. coli inoculates were grown in liquid media containing either control (no additives), 1 mM 3HAA or 15 uM DFO for 16 hr at 37 degrees with shaking. The cultures were spotted to either Control plates (no additives) or plate containing DFO+3HAA and left to dry at room temperature. After incubated at 37 degrees for 16 hours, colonies were counted.

In a further series the test system is C. elegans. It counts as in vivo. The following applies: added to culture medium of haao-1 knockout worms (elevated endogenous 3HAA). An excerpt:
Using the haao-1 knockout strain exposes the animals, but not their bacterial food source, to 3HAA.

The subject of the next series is E. coli infection. In words: Infection of C. elegans challenged with fluorescently labeled E. coli. It counts as in vivo. To be noted: fluorescence microscopy over 7 days. An excerpt:
Infection was monitored using fluorescence microscopy over 7 days. Heatmap of infection progression of individual animals over days—purple 32 not infected, red=high infection.

[7] abbreviates: 1 mM 3HAA and 8 mM FAC alone or in combination.

For the molecule `Nc1c(O)cccc1C(=O)O` [3HAA, 3-hydroxyanthanilic acid], the “impact on growth of E. coli” value in the series with E. coli [1] was “negatively affects growth of both E. coli and P. aeruginosa, but only at high doses”. Also, the “impact on growth of P. aeruginosa” value with P. aeruginosa [2] is “negatively affects growth of both E. coli and P. aeruginosa, but only at high doses”. The “increase in growth lag-time” value with bacterial growth is listed as 6%. Also, the figures for the “impact on colony formation (E. coli)” value with E. coli [3] (setting [7]) and in the series with E. coli [3] (1 mM 3HAA or 15 uM DFO alone) were “no significant impact was observed” and “Neither 1 mM 3HAA nor 15 uM DFO alone showed significant impact”, respectively. In addition, the “effect on colony size (E. coli)” value with E. coli [4] is reported as “increased colony size”. Moreover, in the series on P. aeruginosa [5], the “impact on colony formation (P. aeruginosa)” value is reported as “neither affected colony formation alone”. Further, the “sensitization of bacteria to the 3HAA and DFO combination by pretreatment” value with E. coli [6] is “sensitizes bacteria to the combination of 3HAA and DFO”.
With `CC(=O)N(O)CCCCCNC(=O)CCC(=O)N(O)CCCCCNC(=O)CCC(=O)N(O)CCCCCN` [DFO, deferoxamine, reference compound], the “increase in growth lag-time” value in the series with bacterial growth turned out to be 4%. In addition, the “decrease of colony size / colony area (E. coli)” value in the series on E. coli [4] (1 mM 3HAA, 15 uM DFO, 8 mM FAC, alone or in combination) was roughly 8%. For the same molecule, the “toxicity to C. elegans relative to wild type animals” value in the series on C. elegans is “neither the combination of DFO and elevated 3HAA (haao-1) nor the combination of FAC with elevated 3HAA (haao-1) were toxic”.
For the molecule ferric ammonium citrate [FAC], the “impact on growth of E. coli” value with E. coli [1] is “very little impact”. In addition, the “impact on growth of P. aeruginosa” value in the series with P. aeruginosa [2] was “very little impact”. Further, the “impact on colony formation (E. coli)” value with E. coli [3] (setting [7]) was “no significant impact was observed”. The “effect on colony size (E. coli)” value in the series on E. coli [4] is “increased colony size”. The “protection from E. coli infection” value is “This protection was enhanced” in the series on E. coli infection (haao-1 knockout worms (high endogenous 3HAA)) and “protected from infection” in the series with E. coli infection (wild type worms).
